Measurements taken from PubChem BioAssay AID1963442 (Molecular Pharmacology Branch, DTP, NCI, 2024).
Several values for one entry are separate records, joined by “and”; a condition that tells them apart may be missing. Identical values can stand only once.

Test system: MPNST complex spheroid with HUVEC/MSC, growth, % test/control
Assay: Anticancer human tumor MPNST cell line growth inhibition [Asc];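 further: compounds left on spheroids for seven days before reading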
Conditions: for viability, T/C: stronger effect = lower value
How it was run: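 Tumor cells were grown as multicellular spheroids with stromal HUVEC and mesenchymal stem cells and treated singly or in combination. Concentrations fell in half-log steps from the clinical Cmax, or from 10 microM where none was known.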

[1] = curve of first compound, second compound 0.1 µM
[2] = curve of first compound, second compound 0.316 µM
[3] = curve of first compound, second compound 1 µM
[4] = curve of first compound, second compound 3.16 µM
[5] = curve of first compound, second compound 10 µM
[6] = second compound 0.1 µM, first compound 0.00949 µM
[7] = second compound 0.1 µM, first compound 0.03 µM
[8] = second compound 0.1 µM, first compound 0.0949 µM
[9] = second compound 0.1 µM, first compound 0.3 µM
[10] = second compound 0.316 µM, first compound 0.00949 µM
[11] = second compound 0.316 µM, first compound 0.03 µM
[12] = second compound 0.316 µM, first compound 0.0949 µM
[13] = second compound 0.316 µM, first compound 0.3 µM
[14] = second compound 1 µM, first compound 0.00949 µM
[15] = second compound 1 µM, first compound 0.03 µM
[16] = second compound 1 µM, first compound 0.0949 µM
[17] = second compound 1 µM, first compound 0.3 µM
[18] = second compound 3.16 µM, first compound 0.00949 µM
[19] = second compound 3.16 µM, first compound 0.03 µM
[20] = second compound 3.16 µM, first compound 0.0949 µM
[21] = second compound 3.16 µM, first compound 0.3 µM
[22] = second compound 10 µM, first compound 0.00949 µM
[23] = second compound 10 µM, first compound 0.03 µM
[24] = second compound 10 µM, first compound 0.0949 µM
[25] = second compound 10 µM, first compound 0.3 µM

## COc1c(OCCCN2CCOCC2)ccc2c3n(c(=NC(=O)c4cnc(N)nc4)nc12)CCN3 + Cc1c(S(C)(=O)=O)c(-c2cc(F)cc(N3CCN(c4ccc(NS(=O)(=O)c5ccc(NC(CCN6CCC(C(=O)OCCCP(=O)(O)O)CC6)CSc6ccccc6)c(S(=O)(=O)C(F)(F)F)c5)cc4)CC3)c2)c(-c2ccc(Cl)cc2)n1C(C)C
[1]
  IC50: 68.1 nM
[2]
  IC50: 50.3 nM
[3]
  IC50: 62.8 nM
[4]
  IC50: 31.7 nM
[5]
  IC50: 29.3 nM
Second compound 0.1 µM, first compound 0.00316 µM
  viability, T/C: 60.5%
Second compound 0.1 µM, first compound 0.01 µM
  viability, T/C: 71.7%
Second compound 0.1 µM, first compound 0.0316 µM
  viability, T/C: 62.3%
Second compound 0.1 µM, first compound 0.1 µM
  viability, T/C: 41.8%
Second compound 0.1 µM, first compound 0.316 µM
  viability, T/C: 30.4%
Second compound 0.1 µM, first compound 1 µM
  viability, T/C: 18.6%
Second compound 0.316 µM, first compound 0.00316 µM
  viability, T/C: 72.6%
Second compound 0.316 µM, first compound 0.01 µM
  viability, T/C: 62.3%
Second compound 0.316 µM, first compound 0.0316 µM
  viability, T/C: 61.7%
Second compound 0.316 µM, first compound 0.1 µM
  viability, T/C: 35%
Second compound 0.316 µM, first compound 0.316 µM
  viability, T/C: 23.8%
Second compound 0.316 µM, first compound 1 µM
  viability, T/C: 16.8%
Second compound 1 µM, first compound 0.00316 µM
  viability, T/C: 75.9%
Second compound 1 µM, first compound 0.01 µM
  viability, T/C: 77.1%
Second compound 1 µM, first compound 0.0316 µM
  viability, T/C: 62.4%
Second compound 1 µM, first compound 0.1 µM
  viability, T/C: 40.1%
Second compound 1 µM, first compound 0.316 µM
  viability, T/C: 25.2%
Second compound 1 µM, first compound 1 µM
  viability, T/C: 14.4%
Second compound 3.16 µM, first compound 0.00316 µM
  viability, T/C: 79.3%
Second compound 3.16 µM, first compound 0.01 µM
  viability, T/C: 69.5%
Second compound 3.16 µM, first compound 0.0316 µM
  viability, T/C: 49.7%
Second compound 3.16 µM, first compound 0.1 µM
  viability, T/C: 31.1%
Second compound 3.16 µM, first compound 0.316 µM
  viability, T/C: 18.9%
Second compound 3.16 µM, first compound 1 µM
  viability, T/C: 16.8%
Second compound 10 µM, first compound 0.00316 µM
  viability, T/C: 90.1%
Second compound 10 µM, first compound 0.01 µM
  viability, T/C: 71.8%
Second compound 10 µM, first compound 0.0316 µM
  viability, T/C: 48.5%
Second compound 10 µM, first compound 0.1 µM
  viability, T/C: 27.5%
Second compound 10 µM, first compound 0.316 µM
  viability, T/C: 18.3%
Second compound 10 µM, first compound 1 µM
  viability, T/C: 8.75%

## COc1c(OCCCN2CCOCC2)ccc2c3n(c(=NC(=O)c4cnc(N)nc4)nc12)CCN3
Compound 0.00316 µM
  viability, T/C: 84.8% and 70.3% and 54.3%
Compound 0.01 µM
  viability, T/C: 97% and 81% and 50.6%
Compound 0.0316 µM
  viability, T/C: 70.7% and 52.5% and 38.8%
Compound 0.1 µM
  viability, T/C: 39.8% and 39.5% and 13.7%
Compound 0.316 µM
  viability, T/C: 31.4% and 24.9% and 9.45%
Compound 1 µM
  viability, T/C: 24% and 18.9% and 5.21%
Curve of compound
  IC50: 68.7 nM and 49.5 nM and 11.5 nM

## NC(=O)C(=Cn1cnc(-c2cc(C(F)(F)F)cc(C(F)(F)F)c2)n1)c1cncnc1 + Cc1c(S(C)(=O)=O)c(-c2cc(F)cc(N3CCN(c4ccc(NS(=O)(=O)c5ccc(NC(CCN6CCC(C(=O)OCCCP(=O)(O)O)CC6)CSc6ccccc6)c(S(=O)(=O)C(F)(F)F)c5)cc4)CC3)c2)c(-c2ccc(Cl)cc2)n1C(C)C
[1]
  IC50: > 300 nM
[2]
  IC50: 172 nM
[3]
  IC50: 72 nM
[4]
  IC50: 37.4 nM
[5]
  IC50: 75.6 nM
Second compound 0.1 µM, first compound 0.000949 µM
  viability, T/C: 56.9%
Second compound 0.1 µM, first compound 0.003 µM
  viability, T/C: 65.2%
[6]
  viability, T/C: 59%
[7]
  viability, T/C: 80.2%
[8]
  viability, T/C: 66.9%
[9]
  viability, T/C: 44.9%
Second compound 0.316 µM, first compound 0.000949 µM
  viability, T/C: 68.9%
Second compound 0.316 µM, first compound 0.003 µM
  viability, T/C: 80%
[10]
  viability, T/C: 74.3%
[11]
  viability, T/C: 64.3%
[12]
  viability, T/C: 61.5%
[13]
  viability, T/C: 40.6%
Second compound 1 µM, first compound 0.000949 µM
  viability, T/C: 78.6%
Second compound 1 µM, first compound 0.003 µM
  viability, T/C: 75.8%
[14]
  viability, T/C: 67.9%
[15]
  viability, T/C: 54.4%
[16]
  viability, T/C: 50.6%
[17]
  viability, T/C: 41.5%
Second compound 3.16 µM, first compound 0.000949 µM
  viability, T/C: 65.3%
Second compound 3.16 µM, first compound 0.003 µM
  viability, T/C: 78.5%
[18]
  viability, T/C: 70.1%
[19]
  viability, T/C: 51.5%
[20]
  viability, T/C: 44.6%
[21]
  viability, T/C: 39.3%
Second compound 10 µM, first compound 0.000949 µM
  viability, T/C: 73.3%
Second compound 10 µM, first compound 0.003 µM
  viability, T/C: 72.4%
[22]
  viability, T/C: 65.6%
[23]
  viability, T/C: 58.4%
[24]
  viability, T/C: 48%
[25]
  viability, T/C: 34.6%

## CCN1C(C(=O)NC23CCC(C(=O)O)(CC2)CC3)C(c2cccc(Cl)c2F)C2(C(=O)Nc3cc(Cl)ccc32)C12CCCCC2 (configuration not stated) + Cc1c(S(C)(=O)=O)c(-c2cc(F)cc(N3CCN(c4ccc(NS(=O)(=O)c5ccc(NC(CCN6CCC(C(=O)OCCCP(=O)(O)O)CC6)CSc6ccccc6)c(S(=O)(=O)C(F)(F)F)c5)cc4)CC3)c2)c(-c2ccc(Cl)cc2)n1C(C)C
[1]
  IC50: > 3000 nM
[2]
  IC50: > 3000 nM
[3]
  IC50: > 3000 nM
[4]
  IC50: > 3000 nM
[5]
  IC50: > 3000 nM
[6]
  viability, T/C: 66.3%
[7]
  viability, T/C: 92.1%
[8]
  viability, T/C: 78.6%
[9]
  viability, T/C: 69.6%
Second compound 0.1 µM, first compound 0.949 µM
  viability, T/C: 82.5%
Second compound 0.1 µM, first compound 3 µM
  viability, T/C: 58.6%
[10]
  viability, T/C: 84%
[11]
  viability, T/C: 76.4%
[12]
  viability, T/C: 75.2%
[13]
  viability, T/C: 66.9%
Second compound 0.316 µM, first compound 0.949 µM
  viability, T/C: 58.5%
Second compound 0.316 µM, first compound 3 µM
  viability, T/C: 60.3%
[14]
  viability, T/C: 83.1%
[15]
  viability, T/C: 77.6%
[16]
  viability, T/C: 78.9%
[17]
  viability, T/C: 66.6%
Second compound 1 µM, first compound 0.949 µM
  viability, T/C: 58.8%
Second compound 1 µM, first compound 3 µM
  viability, T/C: 63%
[18]
  viability, T/C: 77.9%
[19]
  viability, T/C: 69.7%
[20]
  viability, T/C: 92.9%
[21]
  viability, T/C: 59.1%
Second compound 3.16 µM, first compound 0.949 µM
  viability, T/C: 61.6%
Second compound 3.16 µM, first compound 3 µM
  viability, T/C: 56.7%
[22]
  viability, T/C: 85.9%
[23]
  viability, T/C: 82.3%
[24]
  viability, T/C: 75.4%
[25]
  viability, T/C: 68.8%
Second compound 10 µM, first compound 0.949 µM
  viability, T/C: 56.5%
Second compound 10 µM, first compound 3 µM
  viability, T/C: 58.3%
